Reference: patent US20220031690A1, “ANTI-NEURODEGENERATIVE DISEASE AGENT” (Hayashibara Co., Ltd., priority 2018, published 2022)

Key:
[1] = Superoxide scavenging ability (hypoxanthine/xanthine oxidase, ESR); type: biochemical
Description: In this experiment, superoxide generated by reacting hypoxanthine with xanthine oxidase was captured by 5,5-dimethyl-4-phenyl-1-pyrroline N-oxide (hereinafter referred to as “4PDMPO”) as a spin trapping agent, and SOD-like activity by the test compound was measured by ESR.
Specifically, A 50 μl of aqueous solution of hypoxanthine (commercialized by Fuji Film Wako Pure Chemical Industries, Ltd., Tokyo, Japan) prepared to 1 mM was added to a glass test tube. […] The ESR spectrum of the reaction mixture was measured 40 seconds after the addition of xanthine oxidase, and the radical scavenging ability of the test compound was shown as its relative percentage thereof, with the case where no dye compound was added as the radical intensity of 100%. Measurements were performed in triplicate for each of the concentrations of each test compound, and the IC50 was calculated using the average value thereof and shown in Table 6. […]
A reaction solution for measuring various radicals was placed in a flat quartz cell for ESR, and the ESR spectrum was measured by an ESR device (commercialized by JEOL Ltd., trade name “Free radical Controller JES-FR30”). […] The peak height of the ESR spectrum corresponding to each radical at this time was set as 100, and the relative intensity when the solution was added and reacted was obtained and expressed as the radical residual rate (%). […]

[2] = Peroxyl radical scavenging ability (AAPH, ESR); type: biochemical; conditions: DMPO spin trap, AAPH 37° C.
Description: Since the peroxyl radical generated by heating of 2,2′-azobis (2-aminodipropane) dihydrochloride (hereinafter referred to as “AAPH”) is a model of biologically derived radicals, in this experiment, the ability of the test compound to scavenge the peroxyl radical was measured by ESR.
Specifically, each of the dye compounds dissolved in DMSO was diluted with 0.1 M phosphate buffer to prepare a test compound solution. […] Measurements were performed in triplicate for each of the concentrations of each test compound, and the IC50 was calculated using the mean value thereof and shown in Table 6.
(§1) Detailed conditions of the ESR measurement are described in this section. A reaction solution for measuring various radicals was placed in a flat quartz cell for ESR, and the ESR spectrum was measured by an ESR device (commercialized by JEOL Ltd., trade name “Free radical Controller JES-FR30”). […] The peak height of the ESR spectrum corresponding to each radical at this time was set as 100, and the relative intensity when the solution was added and reacted was obtained and expressed as the radical residual rate (%). […]

[3] = system: PC12-HS cells; assay: Intracellular ROS production after hydrogen peroxide stimulation (CM-H2DCFDA); type: cell-based, rat; conditions: for intercellular ROS production (%): 50 μM hydrogen peroxide only = 100%; for inhibitory effect on intercellular ROS production (in words): 125 to 1,000 nM
Excerpt: From the above-mentioned Experiment 1-1 and Experiment 1-2, it was shown that NK-5 (Chemical formula 2), NK-5 analogs (Chemical formula 3 and Chemical formula 5) and NK-6 (Chemical formula 7) have strong neurocyte growth acceleration activity and neurite-outgrowth promoting activity, and therefore, it was verified by the following experiment whether these compounds also act effectively on oxidative damage to neurocyte. That is, PC12-HS cells were oxidatively stimulated with hydrogen peroxide, and the intracellular ROS generated at that time was quantified using a fluorescent reagent, and the inhibitory effect of the dye compounds on intercellular ROS production, when an external oxidative stress was applied, was evaluated.
Similar to Experiment 1-1 and Experiment 1-2, precultured PC12-HS cells were cultured for 24 hours with test compounds diluted in culture medium at final concentrations of 125, 250, 500 and 1000 nM. Thereafter, the culture supernatant was removed, the cells were washed with Hank's buffer (60 μM CaCl2), 400 μM MgSO4, 500 μM MgCl2), and then 100 μl of ROS detection reagent CM-H2DCFDA (commercialized by FUJIFILM Wako Pure Chemical Corporation, Tokyo, Japan) adjusted to 5 μM with the same buffer, was added to each well. The PC12-HS cells were cultured at 37° C. for 30 minutes to allow the cells to take up CM-H2DCFDA, and then, the solution containing CM-H2DCFDA was removed. Then, the cells were washed with Hank's buffer, and then added 50 μM of hydrogen peroxide (commercialized by FUJIFILM Wako Pure Chemical Corporation, Tokyo, Japan) diluted with Hank's buffer in a volume 100 μl/well and stimulated at 37° C. for 2 hours. The solution containing hydrogen peroxide was removed, then an 200 μl of Hank's buffer was added to each well, and the cells were measured for fluorescent intensity at a wavelength of 492-527 nm, which is an index of intracellular ROS production, by a fluorescence microplate reader. In addition, after measuring the fluorescence intensity, the cells were fixed by adding 20 μl of glutaraldehyde to each well, and the amount of methylene blue dye uptake was measured as an absorbance at 650 nm, according to a conventional method, the result was used as an index of the number of living cells. The amount of ROS production per cell was indicated by the value that fluorescence intensity (492-527 nm) was divided by the absorbance at 650 nm in each well. The amount of ROS production per cell calculated from cells to which only hydrogen peroxide was added without containing the test compound as a negative control, was set as 100%, and the relative value when the test compound was added was determined, and is shown in Table 3, as the ROS production rate (%) per cell of each well. Measurements were performed for each concentration of each test compound in triplicate, and the mean values were described.

[4] = DPPH radical scavenging ability (absorbance method); type: biochemical
Excerpt: 2,2-Diphenyl-1-picrylhydrazyl (hereinafter referred to as “DPPH”) is a radical with an unpaired electron and has the oxidizing ability of other substances. In addition, because it is stable and easy to handle, it is widely used as an artificial radical-like substance for measuring the antioxidant ability of antioxidants. When DPPH reacts with a substance having antioxidant ability, it loses its own oxidizing ability and its color changes from deep purple to […].
DPPH (commercialized by Tokyo Kasei Kogyo Co., Ltd., Tokyo, Japan) was dissolved in ethanol to prepare a 167 μM DPPH ethanol solution, and 90 μl of the solution was added to each well of the 96-well microplate. A 60 μl each of the test compound serially diluted with ethanol was added to the DPPH ethanol solution, and the mixture was reacted at room temperature for 2 hours, and then the absorbance at 490 nm was measured. […] From those value, the 50% inhibitory concentration of the DPPH radical (Hereinafter, it is referred to as “IC50”) was calculated.

[5] = Hydroxyl radical scavenging ability (Fenton reaction, ESR); type: biochemical; conditions: 4PDMPO spin trap
Description: In this experiment, hydroxyl radicals generating from diethylenetriamine-N, N, N′, N″-pentaacetic acid (DTPA) by Fenton reaction were trapped with 4PDMPO and measured by ESRs.
Specifically, each of the dye compounds dissolved in DMSO was diluted with purified water to obtain a test compound solution. To a glass test tube, 50 μl of 1 mM hydrogen peroxide solution and 50 μl of 356 mM 4PDMPO were added, followed by 50 μl of the test compound solution. Then, 50 μl of an aqueous solution containing 1 mM FeSO4 and 1 mM DTPA (commercialized by Fuji Film Wako Pure Chemical Industries, Ltd.) was added thereto, mixed with a vortex mixer for 10 seconds, and then reacted for exactly 40 seconds, and the reaction solution was used for ESR measurement. […]
as §1

[6] = Solubility in distilled water and ethanol (absorbance method); type: physicochemical
Description: A test sample solution, prepared by dissolving each test compound in DMSO to give a concentration of 5 mg/mL, was diluted with 70% (v/v) acetonitrile aqueous solution, and the absorption spectrum at the wavelength range of 400 nm to 900 nm is measured by a spectrophotometer (“FLEX STATION 3”, manufactured by Molecular Devices Japan, Tokyo, Japan). The maximum absorption wavelength of each test compound was determined, then the correlation equation between the absorbance and the concentration at the wavelength was calculated to prepare a calibration curve, and then the following quantitative test was carried out. […] The solubility of each dye compound was measured as follows with reference to the method described in the Japanese Pharmacopoeia. […] After 30 min, 1 mL of the mixture was sampled at 3 times from each test solution, centrifuged at 18,400×g for 5 min, 0.3 mL of the supernatant was collected and admixed with 0.7 mL of acetonitrile to make a total volume of 1.0 mL. Then, the absorbance was measured at the maximum absorption wavelength corresponding to each of the dyes described above, and the concentration of dye was calculated from the calibration curve.

| Structure (SMILES) | superoxide radical scavenging ability relative to NK-4 (comparison of IC50 values) [1] | IC50 ([1]; ESR, 4PDMPO spin trap, read-out: IC50 superoxide radical) | IC50 [2] | intercellular ROS production (%) ([3]; 125 nM) | intercellular ROS production (%) ([3]; 250 nM) | intercellular ROS production (%) ([3]; 500 nM) | intercellular ROS production (%) ([3]; 1,000 nM) | inhibitory effect on intercellular ROS production (in words) [3] | relative DPPH radical scavenging activity based on the IC50 value, relative to NK-4 [4] | IC50 ([4]; ethanol, room temperature, 2 hours, absorbance at 490 nm) | IC50 [5] | Solubility Dictilled water ([6]; distilled water, room temperature, 30 min) | Solubility Ethanol ([6]; ethanol) |
| --- | --- | --- | --- | --- | --- | --- | --- | --- | --- | --- | --- | --- | --- |
| CCN1C=CC(=Cc2cc[n+](CC)c3ccccc23)c2ccccc21.[I-] [NK-6] | more than twice that of NK-4 | 69 µM | 43 µM | 108.6% | 81.2% | 69.8% | 66.2% | suppressed the intercellular ROS production induced by hydrogen peroxide stimulation, in a concentration-dependent manner | about 2 times | 380 µM | 62 µM | 0.093 mg/mL | 0.645 mg/mL |
| CCN1C=CC(=CC=Cc2cc[n+](CC)c3ccccc23)c2ccccc21.[Br-] [NK-36] | – | – | – | 88% | 43.5% | 51% | 8.3% | suppressed the intercellular ROS production induced by hydrogen peroxide stimulation, in a concentration-dependent manner | – | – | – | – | – |
| CCCCN1C=CC(=CC=Cc2cc[n+](CCCC)c3ccccc23)c2ccccc21.[I-] [NK-44] | – | – | – | 75.4% | 65.11% | 34.1% | 27.1% | suppressed the intercellular ROS production induced by hydrogen peroxide stimulation, in a concentration-dependent manner | – | – | – | – | – |
